Experimental data: US20210387966A1, “2-AMINO-N-HETEROARYL-NICOTINAMIDES AS NAV1.8 INHIBITORS” (Merck Sharp & Dohme Corp., priority 2018, published 2021)

molecular target: T1, human Nav1.8 channels (Homo sapiens, UniProt Q9Y5Y9); experiment: Nav1.8 Qube automated patch-clamp assay; type: cell-based; settings: human Nav1.8 stably expressed in HEK 293 cells; whole-cell voltage clamp, room temperature; resting or inactivated state not specified; read-out: IC50 values (nM) for Examples in the Nav1.8 Qube Assay
T1 construct: expressed in transfected cells
T1 sequence (Q9Y5Y9 whole entry): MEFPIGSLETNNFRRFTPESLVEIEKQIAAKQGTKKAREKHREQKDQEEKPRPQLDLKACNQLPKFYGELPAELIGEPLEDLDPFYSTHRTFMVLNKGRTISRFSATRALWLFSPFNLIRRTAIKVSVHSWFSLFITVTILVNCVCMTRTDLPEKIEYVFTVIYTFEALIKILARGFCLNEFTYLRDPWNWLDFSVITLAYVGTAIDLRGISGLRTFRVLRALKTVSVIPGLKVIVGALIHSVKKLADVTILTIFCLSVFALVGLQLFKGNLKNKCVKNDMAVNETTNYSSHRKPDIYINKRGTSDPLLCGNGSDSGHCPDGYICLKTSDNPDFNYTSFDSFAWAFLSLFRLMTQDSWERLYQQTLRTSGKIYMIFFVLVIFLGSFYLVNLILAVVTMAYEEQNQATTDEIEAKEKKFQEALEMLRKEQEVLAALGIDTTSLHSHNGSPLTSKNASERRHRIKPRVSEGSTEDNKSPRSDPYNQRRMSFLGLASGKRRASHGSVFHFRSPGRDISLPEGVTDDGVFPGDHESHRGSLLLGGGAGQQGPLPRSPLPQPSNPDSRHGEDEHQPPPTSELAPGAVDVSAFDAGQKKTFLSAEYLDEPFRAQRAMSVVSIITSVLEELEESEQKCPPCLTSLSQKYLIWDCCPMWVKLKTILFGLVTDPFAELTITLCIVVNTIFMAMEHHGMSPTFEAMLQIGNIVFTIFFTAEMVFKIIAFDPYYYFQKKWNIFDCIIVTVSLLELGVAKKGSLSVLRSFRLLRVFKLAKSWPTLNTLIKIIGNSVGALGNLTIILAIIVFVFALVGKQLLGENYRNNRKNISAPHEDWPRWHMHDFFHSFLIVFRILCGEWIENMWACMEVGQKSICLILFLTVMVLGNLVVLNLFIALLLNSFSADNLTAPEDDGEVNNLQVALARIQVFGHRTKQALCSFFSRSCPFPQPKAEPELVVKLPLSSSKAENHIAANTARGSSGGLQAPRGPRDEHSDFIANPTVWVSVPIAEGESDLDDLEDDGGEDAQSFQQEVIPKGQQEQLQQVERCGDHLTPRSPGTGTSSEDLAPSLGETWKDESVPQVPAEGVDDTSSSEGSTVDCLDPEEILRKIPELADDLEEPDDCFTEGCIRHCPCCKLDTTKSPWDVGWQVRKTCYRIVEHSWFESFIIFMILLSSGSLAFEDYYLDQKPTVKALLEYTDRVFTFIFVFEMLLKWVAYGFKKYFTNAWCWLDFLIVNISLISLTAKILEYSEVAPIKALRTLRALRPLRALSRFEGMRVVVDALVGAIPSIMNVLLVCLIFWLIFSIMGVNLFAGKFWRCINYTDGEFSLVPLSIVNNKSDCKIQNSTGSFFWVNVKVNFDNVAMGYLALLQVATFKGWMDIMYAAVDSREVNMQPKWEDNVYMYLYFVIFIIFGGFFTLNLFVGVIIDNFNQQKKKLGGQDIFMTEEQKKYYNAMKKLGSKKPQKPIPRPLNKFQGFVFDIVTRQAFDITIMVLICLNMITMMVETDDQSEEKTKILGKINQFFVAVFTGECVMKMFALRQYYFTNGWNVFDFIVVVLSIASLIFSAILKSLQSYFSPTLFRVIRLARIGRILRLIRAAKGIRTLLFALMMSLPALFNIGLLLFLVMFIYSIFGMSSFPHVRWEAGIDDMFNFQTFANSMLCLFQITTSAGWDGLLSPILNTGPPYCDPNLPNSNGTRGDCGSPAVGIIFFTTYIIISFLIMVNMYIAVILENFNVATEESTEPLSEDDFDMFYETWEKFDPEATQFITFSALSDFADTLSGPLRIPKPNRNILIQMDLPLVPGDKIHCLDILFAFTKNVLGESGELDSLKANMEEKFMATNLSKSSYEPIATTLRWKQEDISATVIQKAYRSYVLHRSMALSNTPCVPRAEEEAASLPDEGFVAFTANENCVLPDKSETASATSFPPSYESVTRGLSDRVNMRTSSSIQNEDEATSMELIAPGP
Method in brief: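 Whole-cell patch clamp at room temperature on HEK293 cells stably expressing human Nav1.8. A 1 Hz train of ten 20 ms pulses to 10 mV from −90 mV holding, with −67 mV repolarization, was applied; first- and tenth-pulse peak currents gave resting and inactivated-state IC50s by Hill fitting.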

Row | SMILES | IC50 [nM]
1 | NC(=O)c1cc(NC(=O)c2cc(C(F)(F)F)cnc2N2CCCC(F)(F)CC2)ccn1 [Example 137, 4-(2-(4,4-difluoroazepan-1-yl)-5-(trifluoromethyl)nicotinamido)picolinamide] | 26
2 | NS(=O)(=O)c1cncc(NC(=O)c2cc(C(F)(F)F)cnc2N2CCC(F)(F)CC2)n1 [Example 1, 2-(4,4-difluoropiperidin-1-yl)-N-(6-sulfamoylpyrazin-2-yl)-5-(trifluoromethyl)nicotinamide] | 406
3 | CC1CN(c2ncc(C(F)(F)F)cc2C(=O)Nc2ccnc(S(C)(=O)=O)c2)CCC1(F)F (single isomer, unassigned) [Example 149, 2-[(3S or 3R)-4,4-difluoro-3-methyl-1-piperidyl]-N-(2-methylsulfonyl-4-pyridyl)-5-(trifluoro-methyl)pyridine-3-carboxamide] | 57
4 | COc1nc(N2CCCC(F)(F)CC2)c(C(=O)Nc2ccnc(S(N)(=O)=O)c2)cc1Cl [Example 41, 5-chloro-2-(4,4-difluoroazepan-1-yl)-6-methoxy-N-(2-sulfamoylpyridin-4-yl)pyridine-3-carboxamide] | 5.1
5 | N#Cc1cncc(NC(=O)c2cc(C(F)(F)F)cnc2N2CCCCCC2)c1 [Example 193, 2-(azepan-1-yl)-N-(5-cyano-3-pyridyl)-5-(trifluoromethyl)-pyridine-3-carboxamide] | 654
6 | Cc1nc(N2CCCCCC2)c(C(=O)Nc2cc[nH]c(=O)c2)c(C)c1Cl [Example 213, 2-(azepan-1-yl)-5-chloro-4,6-dimethyl-N-(2-oxo-1,2-dihydropyridin-4-yl)nicotinamide] | 80
7 | C[C@H]1CN(c2ncc(C(F)(F)F)cc2C(=O)Nc2ccnc(S(N)(=O)=O)c2)CC[C@@H]1O [Example 77, 2-[(3S,4S)-4-hydroxy-3-methyl-1-piperidyl]-N-(2-sulfamoyl-4-pyridyl)-5-(trifluoromethyl)pyridine-3-carboxamide] | 2980
8 | CC1CN(c2ncc(C(F)(F)F)cc2C(=O)Nc2ccnc(S(N)(=O)=O)c2)CCC1(Cl)Cl (single isomer, unassigned) [Example 50, (S or R)-2-(4,4-dichloro-3-methylpiperidin-1-yl)-N-(2-sulfamoylpyridin-4-yl)-5-(trifluoromethyl)nicotinamide] | 14
9 | Cc1nc(N2CCC(F)(F)CC2)c(C(=O)Nc2ccnc(S(N)(=O)=O)c2)cc1C1CC1 [Example 14, 5-cyclopropyl-2-(4,4-difluoropiperidin-1-yl)-6-methyl-N-(2-sulfamoylpyridin-4-yl)nicotinamide] | 45
10 | CC1CN(c2ncc(C(F)(F)F)cc2C(=O)Nc2ccnc(S(N)(=O)=O)c2)CCC1(Cl)Cl (single isomer, unassigned) [Example 49, (R or S)-2-(4,4-dichloro-3-methylpiperidin-1-yl)-N-(2-sulfamoylpyridin-4-yl)-5-(trifluoromethy)nicotinamide] | 1.4
11 | Cc1nc(N2CCOC(C(F)F)CC2)c(C(=O)Nc2ccnc(S(N)(=O)=O)c2)cc1Cl (single isomer, unassigned) [Example 116, 5-chloro-2-[(7R or 7S)-7-(difluoromethyl)-1,4-oxazepan-4-yl]-6-methyl-N-(2-sulfamoylpyridin-4-yl)pyridine-3-carboxamide] | 32
12 | O=C(Nc1nccc(O)n1)c1cc(C(F)(F)F)cnc1N1CCC(F)(F)CC1 [Example 2, 2-(4,4-difluoropiperidin-1-yl)-N-(4-hydroxypyrimidin-2-yl)-5-(trifluoromethyl)nicotinamide] | 2190
13 | CC1CN(c2ncc(C(F)(F)F)cc2C(=O)Nc2ccnc(S(C)(=O)=O)c2)CCC1(F)F (single isomer, unassigned) [Example 148, 2-[(3R or 3S)-4,4-difluoro-3-methyl-1-piperidyl]-N-(2-methylsulfonyl-4-pyridyl)-5-(trifluoro-methyl)pyridine-3-carboxamide] | 26
14 | NS(=O)(=O)c1cc(NC(=O)c2cc(C(F)(F)F)cnc2N2CCSCC2)ccn1 [Example 84, N-(2-sulfamoyl-4-pyridyl)-2-thiomorpholino-5-(trifluoromethyl)pyridine-3-carboxamide] | 147
15 | NS(=O)(=O)c1cc(NC(=O)c2cc(C(F)(F)F)cnc2N2CCCC(Cc3ccc(C(F)(F)F)cc3)C2)ccn1 (stereo not drawn) [Example 83, N-(2-sulfamoyl-4-pyridyl)-5-(trifluoromethyl)-2-[3-[[4-(trifluoromethyl)phenyl]methyl]-1-piperidyl]pyridine-3-carboxamide] | 114
16 | NS(=O)(=O)c1cccc(NC(=O)c2cc(C(F)(F)F)cnc2N2CCCCCC2)n1 [Example 141, 2-(azepan-1-yl)-N-(6-sulfamoyl-2-pyridyl)-5-(trifluoromethyl)pyridine-3-carboxamide] | 245
17 | COc1ccnc(N2CCC(F)(F)CC2)c1C(=O)Nc1ccnc(S(N)(=O)=O)c1 [Example 159, 2-(4,4-difluoropiperidin-1-yl)-4-methoxy-N-(2-sulfamoylpyridin-4-yl)nicotinamide] | 1630

Row | SMILES | IC50 [nM]
18 | NS(=O)(=O)c1cc(NC(=O)c2cc(C#CC3CC3)c(C(F)(F)F)nc2N2CCC(F)(F)CC2)ccn1 [Example 44, 5-(cyclopropylethynyl)-2-(4,4-difluoropiperidin-1-yl)-N-(2-sulfamoylpyridin-4-yl)-6-(trifluoromethyl)nicotinamide] | 59
19 | CC1CN(c2nc(C(F)(F)F)ccc2C(=O)Nc2ccnc(S(N)(=O)=O)c2)CCC1(F)F (single isomer, unassigned) [Example 162, (R or S)-2-(4,4-difluoro-3-methylpiperidin-1-yl)-N-(2-sulfamoylpyridin-4-yl)-6-(trifluoromethyl)nicotinamide] | 22
20 | CC(C)(C)NS(=O)(=O)c1cc(NC(=O)c2cc(Cl)cnc2N2CCCC(F)(F)CC2)ccn1 [Example 109, N-[2-(tert-butylsulfamoyl)-4-pyridyl]-5-chloro-2-(4,4-difluoroazepan-1-yl)pyridine-3-carboxamide] | 289
21 | NS(=O)(=O)c1cc(NC(=O)c2cc(C(F)(F)F)cnc2N2C[C@H]3CC[C@H]3C2)ccn1 [Example 68, 2-((1R,5S)-3-azabicyclo[3.2.0]heptan-3-yl)-N-(2-sulfamoylpyridin-4-yl)-5-(trifluoromethyl)nicotinamide] | 29
22 | Cc1ccc(C(=O)Nc2ccnc(S(N)(=O)=O)c2)c(N2CCCC(F)(F)C(F)C2)n1 (stereo not drawn) [Example 40, 6-methyl-N-(2-sulfamoylpyridin-4-yl)-2-(3,4,4-trifluoroazepan-1-yl)nicotinamide] | 4.1
23 | NS(=O)(=O)c1cc(NC(=O)c2cc(C(F)(F)F)nnc2N2CCCC(F)(F)CC2)ccn1 [Example 179, 3-(4,4-difluoroazepan-1-yl)-N-(2-sulfamoylpyridin-4-yl)-6-(trifluoromethyl)pyridazine-4-carboxamide] | 102
24 | Cc1nc(N2CCC(F)(F)CC2)c(C(=O)Nc2ccnc(S(N)(=O)=O)c2)cc1F [Example 178, 2-(4,4-difluoropiperidin-1-yl)-5-fluoro-6-methyl-N-(2-sulfamoylpyridin-4-yl)nicotinamide] | 13
25 | N#Cc1ccc(NC(=O)c2cc(C(F)(F)F)cnc2N2CCC(F)(F)CC2)cn1 [Example 5, N-(6-cyanopyridin-3-yl)-2-(4,4-difluoropiperidin-1-yl)-5-(trifluoromethyl)nicotinamide] | 820
26 | Cc1cc(Cl)nc(N2CCC(F)(F)CC2)c1C(=O)Nc1cncc(S(N)(=O)=O)c1 [Example 11, 6-chloro-2-(4,4-difluoropiperidin-1-yl)-4-methyl-N-(5-sulfamoylpyridin-3-yl)nicotinamide] | 212
27 | NS(=O)(=O)c1cc(NC(=O)c2cc(C(F)(F)F)cnc2N2CCCO[C@@H](C(F)(F)F)C2)ccn1 [Example 105, (R)-N-(2-sulfamoylpyridin-4-yl)-5-(trifluoromethyl)-2-(2-(trifluoromethyl)-1,4-oxazepan-4-yl)nicotinamide] | 696
28 | Cc1nc(N2CCCCC2)c(C(=O)Nc2cncc(S(N)(=O)=O)c2)c(C)c1Cl [Example 191, 5-chloro-4,6-dimethyl-2-(1-piperidyl)-N-(5-sulfamoyl-3-pyridyl)pyridine-3-carboxamide] | 124
29 | NS(=O)(=O)c1cc(NC(=O)c2cc(C3CC3)c(OC(F)(F)F)nc2N2CCC(F)(F)CC2)ccn1 [Example 182, 5-cyclopropyl-2-(4,4-difluoropiperidin-1-yl)-N-(2-sulfamoylpyridin-4-yl)-6-(trifluoromethoxy)nicotinamide] | 62
30 | O=C(Nc1ccc2ncc(Br)n2c1)c1cc(C(F)(F)F)cnc1N1CCCCCC1 [Example 199, 2-(azepan-1-yl)-N-(3-bromoimidazo[1,2-a]pyridin-6-yl)-5-(trifluoromethyl)-pyridine-3-carboxamide] | 5070
31 | CC1CN(c2ncc(C(F)(F)F)cc2C(=O)Nc2ccnc(S(N)(=O)=O)c2)CCC(C(F)(F)F)O1 (single isomer, unassigned) [Example 120, 2-[(2S,7R or 2R,7S)-2-methyl-7-(trifluoromethyl)-1,4-oxazepan-4-yl]-N-(2-sulfamoylpyridin-4-yl)-5-(trifluoromethyl)pyridine-3-carboxamide] | 2.9
32 | NS(=O)(=O)c1cc(NC(=O)c2cc(C(F)(F)F)cnc2N2CC(Oc3ccc(C(F)(F)F)cc3)C2)ccn1 [Example 97, N-(2-sulfamoyl-4-pyridyl)-5-(trifluoromethyl)-2-[3-[4-(trifluoromethyl)phenoxy]azetidin-1-yl]pyridine-3-carboxamide] | 1900
33 | NS(=O)(=O)c1cc(NC(=O)c2cc(C(F)(F)F)cnc2N2CC3CC2CC3(F)F)ccn1 (single isomer, unassigned) [Example 72, 2-[(1S,4S or 1R,4R)-5,5-difluoro-2-azabicyclo[2.2.1]heptan-2-yl]-N-(2-sulfamoyl-4-pyridyl)-5-(trifluoromethyl)pyridine-3-carboxamide] | 714
